Reference: patent US6951751B2, “DNA and amino acid sequences of a tyrosine-inducible tyrosine ammonia lyase enzyme from the yeast Trichosporon cutaneum” (E. I. du Pont de Nemours and Company, priority 2002, dated 2005)
Like-named read-outs stand apart in the source and are kept apart here.

What was measured:
Format in all cases: biochemical
[1] = biological target: T1, Rhodotorula rubra (ATCC No. 889) PAL/TAL enzyme (Rhodotorula mucilaginosa, UniProt P10248); experiment: PAL/TAL enzyme kinetics in cell-free extract, R. rubra ATCC 889; conditions: Vmax/Km for phenylalanine relative to tyrosine
T1 sequence (P10248 1-713): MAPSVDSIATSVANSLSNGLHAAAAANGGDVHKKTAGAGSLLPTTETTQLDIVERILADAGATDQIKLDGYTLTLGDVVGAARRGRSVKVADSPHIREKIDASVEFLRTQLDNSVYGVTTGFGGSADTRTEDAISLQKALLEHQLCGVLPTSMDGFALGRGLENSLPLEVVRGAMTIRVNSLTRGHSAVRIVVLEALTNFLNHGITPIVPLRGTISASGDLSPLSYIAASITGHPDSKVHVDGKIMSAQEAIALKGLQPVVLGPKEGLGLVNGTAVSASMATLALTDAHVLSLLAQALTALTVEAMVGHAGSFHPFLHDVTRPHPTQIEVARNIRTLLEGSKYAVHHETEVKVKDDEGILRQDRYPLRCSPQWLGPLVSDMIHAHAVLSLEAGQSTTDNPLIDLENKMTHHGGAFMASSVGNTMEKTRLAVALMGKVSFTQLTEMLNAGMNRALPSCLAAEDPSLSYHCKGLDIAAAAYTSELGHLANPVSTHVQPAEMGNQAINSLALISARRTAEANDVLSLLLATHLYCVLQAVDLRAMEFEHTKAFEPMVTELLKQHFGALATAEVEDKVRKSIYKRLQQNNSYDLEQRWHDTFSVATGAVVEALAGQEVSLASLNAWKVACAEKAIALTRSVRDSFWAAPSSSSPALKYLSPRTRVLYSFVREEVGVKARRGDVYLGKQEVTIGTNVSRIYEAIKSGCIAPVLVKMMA
Text: (§1) The yeast strains: Rhodotorula rubra (ATCC No. 889), Saccharomycopsis fibuligera (ATCC No. 2080), Rhodosporidium toruloides (ATCC No. 10788), Sporidobolus pararoseus (ATCC No. 11386), Sporidiobolus ruinenii (ATCC No. 20489), Rhodotorula graminis (ATCC No. 20804), Rhodotorula minuta (ATCC No. 32769), Trichosporon cutaneum (ATCC No. 46446), and Trichosporon cutaneum (ATCC No. 58094) were obtained from the American Type Culture Collection (ATCC, Manassas, Va.). These yeast strains were streaked out from glycerol stock onto nutrient agar plates and grown at 30° C. Single colonies were then selected and transferred to 50 mL of Dagley's medium (Sparnins, et al, J. Bact. 138:425-430 (1979)) supplemented with 0.1 g/L of tyrosine, phenylalanine or succinate. Alternatively, a minimal media, consisting of 1.61 g/L of K2HPO4, 5.55 g/L of KH2PO4, 0.1 g/L MgSO4, 0.01 g/L of biotin, with a pH of 6.2 and supplemented with 0.5 g/L of tyrosine, was used. […]
(§2) Protein concentrations were determined using the Bradford method (Anal. Biochem. 72:248-254 (1976)). The Coomassie solution was mixed with varying amounts of the cell free extracts and the OD at 595 nm was measured.
(§3) For PAL activity, cinnamate formation was monitored at 290 nm using a molar extinction coefficient of 9000 cm-1. […] For TAL activity, PHCA formation was monitored at 315 nm (extinction coefficient of 10,000 cm-1). […]

[2] = tested on: Saccharomycopsis fibuligera (ATCC No. 2080) PAL/TAL enzyme; experiment: PAL/TAL enzyme kinetics in cell-free extract, S. fibuligera ATCC 2080
Text: (§4) The yeast strains: Rhodotorula rubra (ATCC No. 889), Saccharomycopsis fibuligera (ATCC No. 2080), Rhodosporidium toruloides (ATCC No. 10788), Sporidobolus pararoseus (ATCC No. 11386), Sporidiobolus ruinenii (ATCC No. 20489), Rhodotorula graminis (ATCC No. 20804), Rhodotorula minuta (ATCC No. 32769), Trichosporon cutaneum (ATCC No. 46446), and Trichosporon cutaneum (ATCC No. 58094) were obtained from the American Type Culture Collection (ATCC, Manassas, Va.). These yeast strains were streaked out from glycerol stock onto nutrient agar plates and grown at 30° C. Single colonies were then selected and transferred to 50 mL of Dagley's medium (Sparnins, et al, J. Bact. 138:425-430 (1979)) supplemented with 0.1 g/L of tyrosine, phenylalanine or succinate. Alternatively, a minimal media, consisting of 1.61 g/L of K2HPO4, 5.55 g/L of KH2PO4, 0.1 g/L MgSO4, 0.01 g/L of biotin, with a pH of 6.2 and supplemented with 0.5 g/L of tyrosine, was used. The cells were grown up at 30° C. on a shaker at ˜250 rpm to an OD between 1.0 and 2.0 at 600 nm. The cells were then pelleted by centrifugation and resuspended in 1.0 mL of 50 mM Tris-HCl buffer, pH 8.5.
(§5) The cells were washed and then resuspended in 50 mM Tris-HCl buffer, pH 8.5, containing 1.0 μg/mL of both leupeptin and pepstatin A, 0.5 mM of PMSF (phenylmethylsulfonyl fluoride) and a small amount of DNase. The cells were then passed twice through a French Pressure Cell at 18,000 psi and the debris was removed by centrifugation at 38,720×g for 20 min at 4° C. The supernatant was then used as the crude cell free extract for enzyme assays.
as §2
(§6) For PAL activity, cinnamate formation was monitored at 290 nm using a molar extinction coefficient of 9000 cm-1. One unit of activity deaminates 1.0 μmol of phenylalanine to cinnamate in one min. For TAL activity, PHCA formation was monitored at 315 nm (extinction coefficient of 10,000 cm-1). One unit of activity deaminates 1.0 μmol of tyrosine to PHCA in one min.

[3] = biological target: T2, R. glutinis (Rhodosporidium toruloides, ATCC No. 10788) PAL/TAL enzyme (Rhodotorula toruloides, UniProt P11544); experiment: PAL/TAL enzyme kinetics in cell-free extract, R. glutinis (R. toruloides) ATCC 10788; conditions: Vmax/Km for phenylalanine relative to tyrosine
T2 sequence (P11544 1-716): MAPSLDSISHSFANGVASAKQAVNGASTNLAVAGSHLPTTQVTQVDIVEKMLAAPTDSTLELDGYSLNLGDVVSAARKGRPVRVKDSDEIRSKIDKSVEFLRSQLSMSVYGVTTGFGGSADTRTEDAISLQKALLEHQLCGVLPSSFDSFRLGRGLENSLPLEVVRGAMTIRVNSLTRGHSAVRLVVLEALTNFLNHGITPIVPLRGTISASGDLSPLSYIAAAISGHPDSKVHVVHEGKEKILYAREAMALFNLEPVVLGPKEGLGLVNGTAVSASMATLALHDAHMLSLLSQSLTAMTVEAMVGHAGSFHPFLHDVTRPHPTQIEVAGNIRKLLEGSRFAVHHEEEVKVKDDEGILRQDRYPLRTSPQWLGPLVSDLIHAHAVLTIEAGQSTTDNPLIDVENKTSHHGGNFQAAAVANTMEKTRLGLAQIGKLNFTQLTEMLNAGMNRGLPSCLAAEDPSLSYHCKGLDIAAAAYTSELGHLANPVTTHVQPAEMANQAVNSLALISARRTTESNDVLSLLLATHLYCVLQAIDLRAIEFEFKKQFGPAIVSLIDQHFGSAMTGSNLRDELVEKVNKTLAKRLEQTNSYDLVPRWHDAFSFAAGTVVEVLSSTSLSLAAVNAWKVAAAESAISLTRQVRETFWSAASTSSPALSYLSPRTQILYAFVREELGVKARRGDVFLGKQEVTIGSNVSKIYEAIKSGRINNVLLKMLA
Text: as §1, §2, §3

[4] = tested on: Sporidobolus pararoseus (ATCC No. 11386) PAL/TAL enzyme; experiment: PAL/TAL enzyme kinetics in cell-free extract, S. pararoseus ATCC 11386
Text: as §4, §5, §2, §6

[5] = tested on: Sporidiobolus ruinenii (ATCC No. 20489) PAL/TAL enzyme; experiment: PAL/TAL enzyme kinetics in cell-free extract, S. ruinenii ATCC 20489
Text: as §4, §5, §2, §6

[6] = tested on: Rhodotorula graminis (ATCC No. 20804) PAL/TAL enzyme; experiment: PAL/TAL enzyme kinetics in cell-free extract, R. graminis ATCC 20804
Text: as §4, §5, §2, §6

[7] = tested on: Rhodotorula minuta (ATCC No. 32769) PAL/TAL enzyme; experiment: PAL/TAL enzyme kinetics in cell-free extract, R. minuta ATCC 32769
Text: as §4, §5, §2, §6

[8] = tested on: Trichosporon cutaneum (ATCC No. 46446) PAL/TAL enzyme; experiment: PAL/TAL enzyme kinetics in cell-free extract, T. cutaneum ATCC 46446
Text: as §4, §5, §2, §6

[9] = tested on: Trichosporon cutaneum (ATCC No. 58094) tyrosine ammonia lyase (TAL), wild type, SEQ ID NO:25; experiment: PAL/TAL enzyme kinetics in cell-free extract, T. cutaneum ATCC 58094
Text: as §4, §5, §2, §6

[10] = Vmax/Km for phenylalanine relative to tyrosine
[11] = apparent, phenylalanine as substrate, cell-free extract, pH 8.5
[12] = apparent, phenylalanine as substrate, cell-free extract, pH 8.5, read-out: Km (PAL)
[13] = apparent, tyrosine as substrate, cell-free extract, pH 8.5
[14] = apparent, tyrosine as substrate, cell-free extract, pH 8.5, read-out: Km (TAL)

N[C@@H](Cc1ccccc1)C(=O)O [L-phenylalanine]
Ratio PAL/TAL [1]: 2.52 | Ratio PAL/TAL [2, 10]: 1.74 | Vmax (PAL) [2, 11]: 0.011 U/mg | Km [2, 12]: 467 µM | Ratio PAL/TAL [3]: 2.20 | Ratio PAL/TAL [4, 10]: 3.55 | Vmax (PAL) [4, 11]: 0.179 U/mg | Km [4, 12]: 507 µM | Ratio PAL/TAL [5, 10]: 4.09 | Vmax (PAL) [5, 11]: 0.024 U/mg | Km [5, 12]: 389 µM | Ratio PAL/TAL [6, 10]: 1.87 | Vmax (PAL) [6, 11]: 0.239 U/mg | Km [6, 12]: 448 µM | Ratio PAL/TAL [7, 10]: 2.79 | Vmax (PAL) [7, 11]: 0.083 U/mg | Km [7, 12]: 584 µM | Ratio PAL/TAL [8, 10]: 2.64 | Vmax (PAL) [8, 11]: 0.128 U/mg | Km [8, 12]: 49600 µM | Ratio PAL/TAL [9, 10]: 0.80 | Vmax (PAL) [9, 11]: 0.777 U/mg | Km [9, 12]: 2330 µM

N[C@@H](Cc1ccc(O)cc1)C(=O)O [L-tyrosine]
Vmax (TAL) [2, 13]: 0.002 U/mg | Km [2, 14]: 156 µM | Vmax (TAL) [4, 13]: 0.033 U/mg | Km [4, 14]: 327 µM | Vmax (TAL) [5, 13]: 0.004 U/mg | Km [5, 14]: 264 µM | Vmax (TAL) [6, 13]: 0.044 U/mg | Km [6, 14]: 154 µM | Vmax (TAL) [7, 13]: 0.011 U/mg | Km [7, 14]: 212 µM | Vmax (TAL) [8, 13]: 0.013 U/mg | Km [8, 14]: 13100 µM | Km [9, 14]: 431 µM
